Data published in patent publication US11458212B2, “Molecular imaging of cancer cells in vivo” (H. Lee Moffitt Cancer Center and Research Institute, Inc., priority 2011, dated 2022).
“Also recorded” adds a separate entry of the source. Blank lines part the entries; values can stand above or below the compound they belong to. Where a SMILES comes first, the peptide text is derived from it. Primed or numbered codes have the meaning given here. The star is where a group is joined. Adapalene = Adapaleneyl (acyl group from adapalene), COc1ccc(-c2ccc3cc(C(=O)*)ccc3c2)cc1C12CC3CC(CC(C3)C1)C2; Propyl(2R-PamO,3-PamO) = CCCCCCCCCCCCCCCC(=O)OC[C@H](C*)OC(=O)CCCCCCCCCCCCCCC; X2 = CCCCCCCCCCCCCCCC(=O)OCC(C*)OC(=O)CCCCCCCCCCCCCCC; X1 = CC(=O)NCCCOCCOCCOCCCNC(=O)COCC(=O)*; Palmitoyl = CCCCCCCCCCCCCCCC(=O)*; Ahx = NCCCCCC(=O)O; Dhc(Pam)2″ = lipid

How the values were obtained:
[1] = target: TLR2 (Homo sapiens, UniProt O60603); experiment: In vitro TLR2 functional bioassay (NF-κB luciferase, HEK293/hTLR2 cells); format: cell-based; parameters: host or cells: HEK293 stably transfected with pUNO-hTLR2, transiently transfected with the pNifty-Luc reporter; conditions: for EC50: log(agonist) vs. normalized response, doses 0.01 ng/mL to 1 μg/mL, read-out: EC50; for TLR2 Agonist Activity: screened at 1 μg/mL; for fold of enhancement vs SAA at 1 μg/mL / fold of enhancement vs SAA at 10 μg/mL: compound at 1 μg/mL
Sequence of TLR2 (O60603 21-784): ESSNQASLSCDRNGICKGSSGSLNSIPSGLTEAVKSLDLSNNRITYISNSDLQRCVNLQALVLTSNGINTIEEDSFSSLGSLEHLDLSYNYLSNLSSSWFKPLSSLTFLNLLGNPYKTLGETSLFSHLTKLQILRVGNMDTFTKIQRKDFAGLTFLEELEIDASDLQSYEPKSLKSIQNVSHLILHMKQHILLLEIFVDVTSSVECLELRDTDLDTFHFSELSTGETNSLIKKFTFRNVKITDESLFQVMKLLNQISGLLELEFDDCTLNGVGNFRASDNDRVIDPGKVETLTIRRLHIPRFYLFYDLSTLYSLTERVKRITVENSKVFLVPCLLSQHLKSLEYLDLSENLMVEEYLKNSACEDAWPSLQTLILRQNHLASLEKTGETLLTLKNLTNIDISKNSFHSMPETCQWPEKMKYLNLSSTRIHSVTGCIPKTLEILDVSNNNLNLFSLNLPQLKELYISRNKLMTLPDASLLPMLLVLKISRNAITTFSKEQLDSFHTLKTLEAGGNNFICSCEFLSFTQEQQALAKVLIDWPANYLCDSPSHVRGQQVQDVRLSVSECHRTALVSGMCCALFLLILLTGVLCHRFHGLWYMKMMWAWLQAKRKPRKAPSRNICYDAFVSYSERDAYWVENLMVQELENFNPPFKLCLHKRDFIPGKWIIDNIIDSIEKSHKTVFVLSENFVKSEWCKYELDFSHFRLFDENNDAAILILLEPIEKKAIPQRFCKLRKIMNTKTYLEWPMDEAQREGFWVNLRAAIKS
Sequence of TLR2 (Q9Y2C9 32-796 partner): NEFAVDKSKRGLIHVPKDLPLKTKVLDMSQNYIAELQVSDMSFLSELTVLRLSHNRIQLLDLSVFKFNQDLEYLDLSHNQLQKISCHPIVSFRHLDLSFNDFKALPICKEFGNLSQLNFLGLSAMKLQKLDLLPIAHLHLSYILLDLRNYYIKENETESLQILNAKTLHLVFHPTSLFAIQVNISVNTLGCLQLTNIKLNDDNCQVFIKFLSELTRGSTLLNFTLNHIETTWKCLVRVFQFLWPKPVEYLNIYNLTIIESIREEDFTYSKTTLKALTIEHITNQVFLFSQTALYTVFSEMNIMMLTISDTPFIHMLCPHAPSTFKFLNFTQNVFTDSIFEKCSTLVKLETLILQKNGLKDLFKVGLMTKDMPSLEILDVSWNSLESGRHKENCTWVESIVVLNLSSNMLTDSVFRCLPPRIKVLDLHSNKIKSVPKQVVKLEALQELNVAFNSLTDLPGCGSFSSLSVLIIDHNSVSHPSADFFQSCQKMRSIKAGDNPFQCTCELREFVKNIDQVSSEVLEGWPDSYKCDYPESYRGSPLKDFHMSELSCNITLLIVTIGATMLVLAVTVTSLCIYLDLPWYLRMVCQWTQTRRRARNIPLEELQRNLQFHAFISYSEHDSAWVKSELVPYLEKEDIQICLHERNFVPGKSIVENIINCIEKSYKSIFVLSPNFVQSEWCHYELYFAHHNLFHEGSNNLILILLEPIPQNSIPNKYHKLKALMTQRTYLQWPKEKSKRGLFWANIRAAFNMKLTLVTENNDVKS
Source text: In Vitro TLR2 Functional Bioassay The in vitro TLR2 functional bioassay was developed and optimized for use in screening soluble compound libraries to identify both TLR2 agonists and antagonists. In this study, the TLR2 functional bioassay was used as a fast high throughput screening to identify TLR2 agonist ligands by measuring the inducing activity of NF-κB. HEK293/hTLR2 cells, highly overexpressing human TLR2, were used along with the parental HEK293, cells as a negative control. Cells were seeded at a density of 40,000 per well using a WellMate® Microplate dispenser (Thermo Fischer Scientific/Matrix) in black 96-well plates with opaque white wells (Perkin Elmer Wallac, Waltham, Mass.) and then incubated at 37° C. On day 2, the cells were transiently transfected with pNifty-Luc (InvivoGen), an NF-κB inducible reporter plasmid expressing the luciferase reporter gene (Zuany-Amorim, C., J., et al. Nat Rev Drug Discov, 2002. 1(10):797-807), using an optimized 4:1 ratio by volume of Fugene® HD Transfection Reagent (Roche Applied Science, Indianapolis, Ind.) to pNifty-Luc plasmid DNA (1 μg/mL). […] On day 4 after 24 hrs of peptide stimulation, luciferase induced activity by the induction of NF-κB was measured. Media was aspirated from the wells using an ELx405 Select plate washer (BioTek, Winooski, Vt.), 150 μg/mL D-luciferin (Gold Biotechnology, St. Louis, Mo.) was dispensed using the microplate dispensor; the plates were incubated at 37° C. for 5 min. The luminescence intensity was measured using the standard luminescence protocol on a Victor™ X4 plate-reader equipped with a plate stacker for readout of multiple plates at a time (PerkinElmer, Waltham, Mass.). For each in vitro TLR2 bioassay, at least three different experiments were performed in triplicate (n=3+). Data were analyzed with GraphPad Prism software and curves were generated with the appropriate nonlinear fit regression analysis.
The in vitro TLR2 functional bioassay was developed and optimized for use in high-throughput screening of soluble compound libraries to identify both TLR2 agonists and antagonists. The bioassay measures the induction of NF-κB signaling via TLR2 in HEK-293/hTLR2 cells and parental HEK-293 cells as a negative control. Cells were seeded at a density of 40,000 per well using a WellMate Microplate dispenser (Thermo Fisher Scientific/Matrix) in black 96-well plates with opaque white wells (PerkinElmer, Waltham, Mass.) and then incubated at 37° C. On day 2, the cells were transiently transfected with pNifty-Luc (InvivoGen, San Diego, Calif.), an NF-κB inducible reporter plasmid expressing the luciferase reporter gene[28] using an optimized 4:1 ratio by volume of FugeneHD Transfection Reagent (Promega, Madison, Wis.) to pNifty-Luc plasmid DNA (1 μg/mL). […] […] On day 4 after 24 h of peptide stimulation, luciferase induced activity by the induction of NF-κB was measured. Media was aspirated from the wells using an ELx405 Select CW plate washer (BioTek, Winooski, Vt.), 150 μg/mL D-luciferin (Gold Biotechnology, St. Louis, Mo.) was dispensed using the microplate dispensor; the plates were incubated at 37° C. for 5 min. The luminescence intensity was measured using the standard luminescence protocol on a Victor X4 Multilabel plate reader equipped with a plate stacker for readout of multiple plates at a time (PerkinElmer, Waltham, Mass.). […] Data were analyzed with GraphPad Prism software and curves were generated with the appropriate nonlinear fit regression analysis.

[2] = test system: Trp1455/9M-specific CD8 T cells; experiment: In vivo cellular immune response assay (immune adjuvant); parameters: species or system B6 mice; conditions: for in vivo immune adjuvant activity (generation and persistence of antigen-specific CD8 T cells): compared with Pam2CSK4 and Pam3CSK4
Protocol: To assess the efficacy of T-02 as an immune adjuvant, mice were immunized i.v. with a mixture of 100 μg optimized Trp1455/9M peptide (Guevara-Patino, J. A., et al. J Clin Invest, 2006. 116(5):1382-90), 50 μg anti-CD40 mAb (Clone; FGk-45.5), and 50 μg TLR-2 peptide (T-02, Pam2CSK4, or Pam3CSK4). […] The response of tetramer+ CD8 T cells in the blood was measured on day 7, 21, and 34 by tetramer staining. For tetramer staining, peripheral blood was taken from the submandibular vein and treated briefly with ammonium chloride buffer to lyse red blood cells. Blood cells were stained with FITC-conjugated anti-MHC class II, PerCP Cy5.5-conjugated CD8a (both from eBioscience, San Diego, Calif.), and phycoerythrin-conjugated Trp1455/9M/H-2D^b tetramers (provided by the NIH tetramer Facility, Emory University, Atlanta Ga.) for 40 min in ice. Fluorescence was evaluated using a FACSCalibur™ flow cytometer (BD Biosciences) and analyzed using FlowJo software.
C57BL/6 (B6) mice 6-8 weeks old were purchased from Charles River (Wilmington, Mass.). To assess the efficacy of 10 as an immune adjuvant, B6 mice were immunized i.v. with a mixture (in a volume of 200 μl) of 100 μg optimized Trp1455/9M peptide,[10c] 50 μg anti-CD40 monoclonal antibody (Clone; FGk-45.5), and 50 μg TLR2 agonist (10, Pam2CSK4, or Pam3CSK4). […] The response of tetramer positive CD8 T cells in the blood was measured on day 7, 21 and 34 by tetramer staining. For tetramer staining, peripheral blood was taken from the submandibular vein and treated briefly with ammonium chloride buffer to lyse red blood cells. Blood cells were stained with FITC-conjugated anti-MHC class II, PerCP Cy5.5-conjugated CD8a, and phycoerythrin-conjugated Trp1455/9M/H-2D^b tetramers for 40 min in ice. Fluorescence was evaluated using a FACSCalibur flow cytometer (BD Biosciences) and analyzed using FlowJo software.

Compound: CCCCCCCCCCCCCCCC(=O)OC[C@H](CSC[C@H](NC(=O)COCC(=O)NCCCOCCOCCOCCCNC(C)=O)C(=O)NCC(=O)N[C@@H](CC(N)=O)C(=O)N[C@@H](CC(N)=O)C(=O)N[C@@H](CC(=O)O)C(=O)N[C@@H](CCC(=O)O)C(=O)N[C@@H](CO)C(=O)N[C@@H](CC(N)=O)C(=O)N[C@H](C(=O)N[C@@H](CO)C(=O)N[C@@H](Cc1ccccc1)C(=O)N[C@@H](CCCCN)C(=O)N[C@@H](CCC(=O)O)C(=O)N[C@@H](CCCCN)C(N)=O)[C@@H](C)CC)OC(=O)CCCCCCCCCCCCCCC [Compound 3] (X1-C(Propyl(2R-PamO,3-PamO))GNNDESNISFKEK-NH2)
EC50 [1]: 55.6 nM
TLR2 Agonist Activity [1]: Yes

Compound: CCCCCCCCCCCCCCCC(=O)OCC(CSCC(NC(=O)COCC(=O)NCCCOCCOCCOCCCNC(C)=O)C(=O)NC(CO)C(=O)NC(CCCNC(=N)N)C(=O)NC(Cc1ccccc1)C(=O)NC(CC(=O)O)C(=O)NC(CCC(=O)O)C(=O)NC(CC(=O)O)C(=O)NC(CC(=O)O)C(=O)NC(CC(C)C)C(=O)NC(CCC(=O)O)C(N)=O)OC(=O)CCCCCCCCCCCCCCC (centres unmarked) [Compound 8] (X1-C(X2)SRFDEDDLE-NH2; configuration not given here)
fold of enhancement vs SAA at 1 μg/mL [1]: 11 fold
fold of enhancement vs SAA at 10 μg/mL [1]: 4.2 fold

Compound: CCCCCCCCCCCCCCCC(=O)OC[C@H](CSC[C@H](NC(=O)COCC(=O)NCCCOCCOCCOCCCNC(C)=O)C(=O)NCC(=O)N[C@@H](CO)C(=O)N[C@@H](CCC(N)=O)C(=O)N[C@@H](CC(N)=O)C(=O)N[C@@H](CC(C)C)C(=O)N[C@@H](C)C(=O)N[C@@H](CO)C(=O)N[C@@H](CC(C)C)C(=O)N[C@@H](CCC(=O)O)C(=O)N[C@@H](CCC(=O)O)C(N)=O)OC(=O)CCCCCCCCCCCCCCC [Compound 9] (X1-C(Propyl(2R-PamO,3-PamO))GSQNLASLEE-NH2)
fold of enhancement vs SAA at 1 μg/mL [1]: 13 fold
fold of enhancement vs SAA at 10 μg/mL [1]: 4.8 fold
EC50 [1]: 78.4 nM

fold of enhancement vs SAA at 1 μg/mL [1]: 14 fold
fold of enhancement vs SAA at 10 μg/mL [1]: 5.2 fold
Compound: CCCCCCCCCCCCCCCC(=O)OC[C@H](CSC[C@H](NC(=O)COCC(=O)NCCCOCCOCCOCCCNC(C)=O)C(=O)NCC(=O)NC(CO)C(=O)NCCCOCCOCCOCCCNC(=O)COCC(N)=O)OC(=O)CCCCCCCCCCCCCCC (stereo partly drawn) [Compound 10, Ac-PEGO-Dhc(Pam)2-Gly-Ser-PEGO-NH2]
in vivo immune adjuvant activity (generation and persistence of antigen-specific CD8 T cells) [2]: stimulated the immune system by generation and persistence of antigen-specific CD8 T cells; also recorded: exhibited activity similar to the other known TLR2 agonists; also recorded: induced an in vivo immune response comparable to the currently available TLR2 synthetic agonists
in vivo immune adjuvant activity (generation and persistence of antigen-specific CD8 T cells) ([2]; listed as T-02): exhibited similar in vivo activity comparable to the TLR-2 agonists, Pam2CSK4 and Pam3CSK4
fluorescence of stained tetramer positive CD8 T cells ([2]; day 7): High fluorescence
response rate of the tetramer positive CD8 T cells ([2]; day 7): 100%
maximum amount of fluorescently stained tetramer positive CD8 T cells ([2]; day 7, peripheral blood, i.v. immunization, n=3): 49.6%
tetramer positive CD8 T cells ([2]; day 21): 25.7%
tetramer positive CD8 T cells ([2]; day 34): 12.7%

Compound: Ac-Aha-Dhc(Pam)2-Gly-Asn-Asn-Asp-Glu-Ser-Asn-Ile-Ser-Phe-Lys-Glu-Lys-NH2 ({Ac-Ahx-Dhc(Pam)2″}-GNNDESNISFKEK-NH2) [Compound 4]
TLR2 Agonist Activity [1]: Yes

Compound: Ac-Aun(C11)-Dhc(Pam)2-Gly-Asn-Asn-Asp-Glu-Ser-Asn-Ile-Ser-Phe-Lys-Glu-Lys-NH2 ({Ac-Aun(C11)-Dhc(Pam)2″}-GNNDESNISFKEK-NH2) [Compound 6]
TLR2 Agonist Activity [1]: Yes

TLR2 Agonist Activity [1]: Yes
Compound: Adapalene-Dhc(Pam)2-Gly-Asn-Asn-Asp-Glu-Ser-Asn-Ile-Ser-Phe-Lys-Glu-Lys-NH2 ({Adapalene-Dhc(Pam)2″}-GNNDESNISFKEK-NH2) [Compound 5]

TLR2 Agonist Activity [1]: Yes
Compound: Fluorescein-Dhc(Pam)2-Gly-Asn-Asn-Asp-Glu-Ser-Asn-Ile-Ser-Phe-Lys-Glu-Lys-NH2 ({Fluorescein-Dhc(Pam)2″}-GNNDESNISFKEK-NH2) [Compound 2]

TLR2 Agonist Activity [1]: Yes
Compound: Pam-Dhc(Pam)2-Gly-Asn-Asn-Asp-Glu-Ser-Asn-Ile-Ser-Phe-Lys-Glu-Lys-NH2 ({Palmitoyl-Dhc(Pam)2″}-GNNDESNISFKEK-NH2) [Compound 1]

TLR2 Agonist Activity [1]: Yes
Compound: Tretinoin-Dhc(Pam)2-Gly-Asn-Asn-Asp-Glu-Ser-Asn-Ile-Ser-Phe-Lys-Glu-Lys-NH2 [Compound 7]

TLR2 agonist activity of vaccine peptide [1]: not a TLR2 agonist
Compound: Trp1455/9M: Trp1455/9M (TAPDNLGYM), H2 Db-optimized peptide from mouse tyrosinase-related protein-1, epitope for CD8 T cells [reference compound]
